Columns and labels:
Assay in all cases: relative viability (nuclei count vs DMSO), 5 days (fraction); higher = more cells survive
Alisertib + Lapatinib = compound: COc1cc(Nc2ncc3c(n2)-c2ccc(Cl)cc2C(c2c(F)cccc2OC)=NC3)ccc1C(=O)O [Alisertib] + CS(=O)(=O)CCNCc1ccc(-c2ccc3ncnc(Nc4ccc(OCc5cccc(F)c5)c(Cl)c4)c3c2)o1 [Lapatinib] (partner 2 µM)
How it was run: (§1)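 Dosing by pin tool came one day after lung cancer cell lines were seeded in 1536-well plates, using either one drug or a fixed anchor-drug dose plus five library-drug doses (not always all listed) in √10 steps. After 5 days, nuclei were counted on 4× images. Relative viability is treated-well nuclei count divided by vehicle-well nuclei count, and values are medians of duplicate plates.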

Alisertib + AZD7762 = compound: COc1cc(Nc2ncc3c(n2)-c2ccc(Cl)cc2C(c2c(F)cccc2OC)=NC3)ccc1C(=O)O [Alisertib] + NC(=O)Nc1cc(-c2cccc(F)c2)sc1C(=O)N[C@H]1CCCNC1 [AZD7762] (partner 0.2 µM)
How it was run: as §1

Alisertib + Olaparib = compound: COc1cc(Nc2ncc3c(n2)-c2ccc(Cl)cc2C(c2c(F)cccc2OC)=NC3)ccc1C(=O)O [Alisertib] + O=C(c1cc(Cc2n[nH]c(=O)c3ccccc23)ccc1F)N1CCN(C(=O)C2CC2)CC1 [Olaparib] (partner 8 µM)
How it was run: as §1

Alisertib + Decitabine = compound: COc1cc(Nc2ncc3c(n2)-c2ccc(Cl)cc2C(c2c(F)cccc2OC)=NC3)ccc1C(=O)O [Alisertib] + Nc1ncn([C@H]2C[C@H](O)[C@@H](CO)O2)c(=O)n1 [Decitabine] (partner 2 µM)
How it was run: as §1

| Cell Line | relative viability (Alisertib + Lapatinib; first compound 0.005 µM) | relative viability (Alisertib + Lapatinib; first compound 0.01581 µM) | relative viability (Alisertib + Lapatinib; first compound 0.05 µM) | relative viability (Alisertib + Lapatinib; first compound 0.1581 µM) | relative viability (Alisertib + Lapatinib; first compound 0.5 µM) | relative viability (Alisertib + AZD7762; first compound 0.005 µM) | relative viability (Alisertib + AZD7762; first compound 0.01581 µM) | relative viability (Alisertib + AZD7762; first compound 0.05 µM) | relative viability (Alisertib + AZD7762; first compound 0.1581 µM) | relative viability (Alisertib + AZD7762; first compound 0.5 µM) | relative viability (Alisertib + Olaparib; first compound 0.005 µM) | relative viability (Alisertib + Olaparib; first compound 0.01581 µM) | relative viability (Alisertib + Olaparib; first compound 0.05 µM) | relative viability (Alisertib + Olaparib; first compound 0.1581 µM) | relative viability (Alisertib + Olaparib; first compound 0.5 µM) | relative viability (Alisertib + Decitabine; first compound 0.005 µM) | relative viability (Alisertib + Decitabine; first compound 0.01581 µM) | relative viability (Alisertib + Decitabine; first compound 0.05 µM) | relative viability (Alisertib + Decitabine; first compound 0.1581 µM) | relative viability (Alisertib + Decitabine; first compound 0.5 µM) |
| --- | --- | --- | --- | --- | --- | --- | --- | --- | --- | --- | --- | --- | --- | --- | --- | --- | --- | --- | --- | --- |
| NCI-H2347 | 0.815 | 0.911 | 0.877 | 0.738 | 0.531 | 0.741 | 0.671 | 0.585 | 0.387 | 0.37 | 0.555 | 0.546 | 0.474 | 0.491 | 0.365 | 0.574 | 0.582 | 0.523 | 0.51 | 0.374 |
| NCI-H2405 | 1.03 | 0.873 | 0.932 | 0.295 | 0.272 | 0.589 | 0.684 | 0.66 | 0.24 | 0.251 | 0.715 | 0.787 | 0.794 | 0.351 | 0.251 | 0.648 | 0.748 | 0.632 | 0.39 | 0.277 |
| NCI-H3122 | 1.01 | 0.999 | 0.899 | 0.433 | 0.307 | 0.973 | 0.78 | 0.776 | 0.259 | 0.203 | 0.627 | 0.717 | 0.41 | 0.261 | 0.222 | 0.376 | 0.412 | 0.375 | 0.192 | 0.161 |
| PC-3 [JPC-3] | 0.453 | 0.441 | 0.441 | 0.374 | 0.329 | 0.649 | 0.778 | 0.705 | 0.403 | 0.317 | 1.09 | 1.02 | 0.802 | 0.632 | 0.483 | 0.829 | 0.822 | 0.661 | 0.62 | 0.51 |
| PC-14 | 0.402 | 0.31 | 0.329 | 0.184 | 0.099 | 0.226 | 0.38 | 0.272 | 0.0966 | 0.0539 | 0.23 | 0.225 | 0.13 | 0.0581 | 0.0485 | 0.173 | 0.187 | 0.154 | 0.057 | 0.0492 |
| RERF-LC-KJ | 0.844 | 0.713 | 0.673 | 0.318 | 0.201 | 0.798 | 0.799 | 0.801 | 0.236 | 0.214 | 0.883 | 0.687 | 0.25 | 0.223 | 0.251 | 0.731 | 0.443 | 0.258 | 0.173 | 0.247 |

Source: the supplement of paper PMC10307832
